Test results from PubChem BioAssay (NCI).
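Results reflect a 48-hour exposure of cells in 96-well plates to compound at five concentrations. Abbreviation: GI50, concentration required for 50% inhibition of growth. TGI: concentration producing complete growth inhibition.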

Tests used:
Test in all cases: growth of human tumour cells (NCI), 48 h
MALME-3M melanoma = test system: MALME-3M melanoma
EKVX NSCLC = test system: EKVX NSCLC
PC-3 prostate = test system: PC-3 prostate
OVCAR-8 ovarian = test system: OVCAR-8 ovarian
SF-268 CNS = test system: SF-268 CNS
A498 renal = test system: A498 renal
SW-620 colon = test system: SW-620 colon
SF-295 CNS = test system: SF-295 CNS
HOP-92 NSCLC = test system: HOP-92 NSCLC
UACC-257 melanoma = test system: UACC-257 melanoma
K-562 leukemia = test system: K-562 leukemia
MDA-N = test system: MDA-N
SK-MEL-5 melanoma = test system: SK-MEL-5 melanoma
NCI-H23 lung = test system: NCI-H23 lung
SK-MEL-2 melanoma = test system: SK-MEL-2 melanoma
MOLT-4 leukemia = test system: MOLT-4 leukemia
SNB-75 CNS = test system: SNB-75 CNS
SR leukemia = test system: SR leukemia
SF-539 CNS = test system: SF-539 CNS
NCI-H460 lung = test system: NCI-H460 lung
SK-OV-3 ovarian = test system: SK-OV-3 ovarian
RPMI-8226 leukemia = test system: RPMI-8226 leukemia
HCC-2998 colon = test system: HCC-2998 colon
CAKI-1 renal = test system: CAKI-1 renal
HOP-62 NSCLC = test system: HOP-62 NSCLC
U251 CNS = test system: U251 CNS
SN12C renal = test system: SN12C renal
NCI-H226 lung = test system: NCI-H226 lung
COLO 205 colon = test system: COLO 205 colon
LOX IMVI melanoma = test system: LOX IMVI melanoma
HL-60(TB) leukemia = test system: HL-60(TB) leukemia
HCT-116 colon = test system: HCT-116 colon
MCF7 breast = test system: MCF7 breast
RXF 393 renal = test system: RXF 393 renal
HS 578T breast = test system: HS 578T breast
SNB-19 CNS = test system: SNB-19 CNS
NCI/ADR-RES ovarian = test system: NCI/ADR-RES ovarian
MDA-MB-435 = test system: MDA-MB-435
T-47D breast = test system: T-47D breast
786-0 renal = test system: 786-0 renal
OVCAR-3 ovarian = test system: OVCAR-3 ovarian
HCT-15 colon = test system: HCT-15 colon
OVCAR-4 ovarian = test system: OVCAR-4 ovarian
UACC-62 melanoma = test system: UACC-62 melanoma
ACHN renal = test system: ACHN renal
BT-549 breast = test system: BT-549 breast
IGROV1 ovarian = test system: IGROV1 ovarian
NCI-H522 lung = test system: NCI-H522 lung
A549 NSCLC = test system: A549 NSCLC
TK-10 renal = test system: TK-10 renal
SK-MEL-28 melanoma = test system: SK-MEL-28 melanoma
KM12 colon = test system: KM12 colon
MDA-MB-231 breast = test system: MDA-MB-231 breast
HT29 colon = test system: HT29 colon
CCRF-CEM leukemia = test system: CCRF-CEM leukemia
M14 melanoma = test system: M14 melanoma
OVCAR-5 ovarian = test system: OVCAR-5 ovarian
DU-145 prostate = test system: DU-145 prostate
KM20L2 colon = test system: KM20L2 colon
HOP-18 NSCLC = test system: HOP-18 NSCLC
UO-31 renal = test system: UO-31 renal

With `N/N=C(/CC(O)(C(F)(F)F)C(F)(F)F)c1ccccc1` the TGI (MALME-3M melanoma) was over 10 µM, the TGI (EKVX NSCLC) was over 10 µM and the TGI (PC-3 prostate) was over 10 µM. It also gave a TGI (OVCAR-8 ovarian) of over 10 µM, a TGI (SF-268 CNS) of over 10 µM and a TGI (A498 renal) of over 10 µM. For the same compound, the TGI (SW-620 colon) was over 10 µM, the TGI (SF-295 CNS) was over 10 µM and the TGI (HOP-92 NSCLC) was over 10 µM. It also gave a TGI (UACC-257 melanoma) of over 10 µM, a TGI (K-562 leukemia) of over 10 µM and a TGI (MDA-N) of over 10 µM. It also gave a TGI (SK-MEL-5 melanoma) of over 10 µM, a TGI (NCI-H23 lung) of over 10 µM and a TGI (SK-MEL-2 melanoma) of over 10 µM. For the same compound, the TGI (MOLT-4 leukemia) was over 10 µM, the TGI (SNB-75 CNS) was over 10 µM and the TGI (SR leukemia) was over 10 µM. It also gave a TGI (SF-539 CNS) of over 10 µM, a TGI (NCI-H460 lung) of over 10 µM and a TGI (SK-OV-3 ovarian) of over 10 µM. It also gave a TGI (RPMI-8226 leukemia) of over 10 µM, a TGI (HCC-2998 colon) of over 10 µM and a TGI (CAKI-1 renal) of over 10 µM. It also gave a TGI (HOP-62 NSCLC) of over 10 µM, a TGI (U251 CNS) of over 10 µM and a TGI (SN12C renal) of over 10 µM. The TGI (NCI-H226 lung) was over 10 µM, the TGI (COLO 205 colon) was over 10 µM and the TGI (LOX IMVI melanoma) was over 10 µM. For the same compound, the TGI (HL-60(TB) leukemia) was over 10 µM, the TGI (HCT-116 colon) was over 10 µM and the TGI (MCF7 breast) was over 10 µM. For the same compound, the TGI (RXF 393 renal) was over 10 µM, the TGI (HS 578T breast) was over 10 µM and the TGI (SNB-19 CNS) was over 10 µM. The TGI (NCI/ADR-RES ovarian) was over 10 µM, the TGI (MDA-MB-435) was over 10 µM and the TGI (T-47D breast) was over 10 µM. For the same compound, the TGI (786-0 renal) was over 10 µM, the TGI (OVCAR-3 ovarian) was over 10 µM and the TGI (HCT-15 colon) was over 10 µM. For the same compound, the TGI (OVCAR-4 ovarian) was over 10 µM, the TGI (UACC-62 melanoma) was over 10 µM and the TGI (ACHN renal) was over 10 µM. It also gave a TGI (BT-549 breast) of over 10 µM, a TGI (IGROV1 ovarian) of over 10 µM and a TGI (NCI-H522 lung) of over 10 µM. It also gave a TGI (A549 NSCLC) of over 10 µM, a TGI (TK-10 renal) of over 10 µM and a TGI (SK-MEL-28 melanoma) of over 10 µM. For the same compound, the TGI (KM12 colon) was over 10 µM, the TGI (MDA-MB-231 breast) was over 10 µM and the TGI (HT29 colon) was over 10 µM. For the same compound, the TGI (CCRF-CEM leukemia) was over 10 µM, the TGI (M14 melanoma) was over 10 µM and the TGI (OVCAR-5 ovarian) was over 10 µM. The TGI (DU-145 prostate) was over 10 µM.
`O=C([CH-]C(=O)c1ccccc1)c1ccccc1.[CH3-].[CH3-].[CH3-].[Sn+4]` was tested, and the GI50 (MALME-3M melanoma) was 10.7 µM, the TGI (MALME-3M melanoma) was 29.6 µM and the GI50 (EKVX NSCLC) was 33.1 µM. For the same compound, the TGI (EKVX NSCLC) was over 100 µM, the GI50 (OVCAR-8 ovarian) was 8.25 µM and the TGI (OVCAR-8 ovarian) was 53.8 µM. For the same compound, the GI50 (SF-268 CNS) was 12.9 µM, the TGI (SF-268 CNS) was 81.3 µM and the GI50 (A498 renal) was 35.4 µM. The TGI (A498 renal) was over 100 µM, the GI50 (SW-620 colon) was 12.3 µM and the TGI (SW-620 colon) was 26 µM. The GI50 (SF-295 CNS) was 6.68 µM, the TGI (SF-295 CNS) was 31.5 µM and the GI50 (HOP-92 NSCLC) was 27.8 µM. It also gave a TGI (HOP-92 NSCLC) of 67.3 µM, a GI50 (UACC-257 melanoma) of 22.2 µM and a TGI (UACC-257 melanoma) of 60.8 µM. It also gave a GI50 (K-562 leukemia) of 4.92 µM, a TGI (K-562 leukemia) of 23.6 µM and a GI50 (SK-MEL-5 melanoma) of 8.21 µM. The TGI (SK-MEL-5 melanoma) was 35.1 µM, the GI50 (NCI-H23 lung) was 18.4 µM and the TGI (NCI-H23 lung) was 63.4 µM. For the same compound, the GI50 (SK-MEL-2 melanoma) was 7.68 µM, the TGI (SK-MEL-2 melanoma) was 56.9 µM and the GI50 (MOLT-4 leukemia) was 3.18 µM. The TGI (MOLT-4 leukemia) was 13.6 µM, the GI50 (SNB-75 CNS) was 19.4 µM and the TGI (SNB-75 CNS) was over 100 µM. For the same compound, the GI50 (SR leukemia) was 1.93 µM, the TGI (SR leukemia) was 11.5 µM and the GI50 (SF-539 CNS) was 21.7 µM. The TGI (SF-539 CNS) was over 100 µM, the GI50 (NCI-H460 lung) was 6.89 µM and the TGI (NCI-H460 lung) was over 100 µM. The GI50 (KM20L2 colon) was 16.3 µM, the TGI (KM20L2 colon) was 58 µM and the GI50 (SK-OV-3 ovarian) was 27.1 µM. For the same compound, the TGI (SK-OV-3 ovarian) was 70.1 µM, the GI50 (RPMI-8226 leukemia) was 4.99 µM and the TGI (RPMI-8226 leukemia) was 26.2 µM. The GI50 (HCC-2998 colon) was 18.7 µM, the TGI (HCC-2998 colon) was 47.5 µM and the GI50 (CAKI-1 renal) was 13.6 µM. The TGI (CAKI-1 renal) was over 100 µM, the GI50 (HOP-62 NSCLC) was 22.9 µM and the TGI (HOP-62 NSCLC) was 94.9 µM. It also gave a GI50 (HOP-18 NSCLC) of 39 µM, a TGI (HOP-18 NSCLC) of over 100 µM and a GI50 (U251 CNS) of 6.87 µM. The TGI (U251 CNS) was 52 µM, the GI50 (SN12C renal) was 17.3 µM and the TGI (SN12C renal) was over 100 µM. The GI50 (NCI-H226 lung) was 6.62 µM, the TGI (NCI-H226 lung) was 65.7 µM and the GI50 (COLO 205 colon) was 17.8 µM. For the same compound, the TGI (COLO 205 colon) was 35.8 µM, the GI50 (LOX IMVI melanoma) was 7.95 µM and the TGI (LOX IMVI melanoma) was 25.9 µM. For the same compound, the GI50 (HL-60(TB) leukemia) was 2.67 µM, the TGI (HL-60(TB) leukemia) was 16 µM and the GI50 (HCT-116 colon) was 5.95 µM. For the same compound, the TGI (HCT-116 colon) was 19.1 µM, the GI50 (RXF 393 renal) was 10.6 µM and the TGI (RXF 393 renal) was 31.9 µM. For the same compound, the GI50 (SNB-19 CNS) was 14.8 µM, the TGI (SNB-19 CNS) was 73 µM and the GI50 (786-0 renal) was 10.2 µM. The TGI (786-0 renal) was 33.1 µM, the GI50 (OVCAR-3 ovarian) was 12.7 µM and the TGI (OVCAR-3 ovarian) was 71.8 µM. It also gave a GI50 (HCT-15 colon) of 5.51 µM, a TGI (HCT-15 colon) of 27.3 µM and a GI50 (OVCAR-4 ovarian) of 8.81 µM. It also gave a TGI (OVCAR-4 ovarian) of 56.1 µM, a GI50 (UACC-62 melanoma) of 12.2 µM and a TGI (UACC-62 melanoma) of 65.8 µM. The GI50 (ACHN renal) was 21 µM, the TGI (ACHN renal) was over 100 µM and the GI50 (IGROV1 ovarian) was 33.1 µM. The TGI (IGROV1 ovarian) was over 100 µM, the GI50 (NCI-H522 lung) was 11.8 µM and the TGI (NCI-H522 lung) was 24.2 µM. For the same compound, the GI50 (UO-31 renal) was 12 µM, the TGI (UO-31 renal) was 40.4 µM and the GI50 (A549 NSCLC) was 17.1 µM. It also gave a TGI (A549 NSCLC) of over 100 µM, a GI50 (TK-10 renal) of 31.7 µM and a TGI (TK-10 renal) of 84.9 µM. The GI50 (SK-MEL-28 melanoma) was 15.6 µM, the TGI (SK-MEL-28 melanoma) was 47.1 µM and the GI50 (KM12 colon) was 18.1 µM. For the same compound, the TGI (KM12 colon) was over 100 µM, the GI50 (HT29 colon) was 19.2 µM and the TGI (HT29 colon) was 60.3 µM. The GI50 (M14 melanoma) was 14.7 µM, the TGI (M14 melanoma) was 29.5 µM and the GI50 (OVCAR-5 ovarian) was 37.2 µM. The TGI (OVCAR-5 ovarian) was 86.5 µM.
